Data: US10336757B2, “Treatment of neurodegenerative diseases through inhibition of HSP90” (Sloan-Kettering Institute for Cancer Research, priority 2006, dated 2019)
Where two headings read alike, the source gives them in different places.

Experiments:
[1] = cited from earlier work
[2] = known Hsp90 inhibitors, cited from earlier work
[3] = system: tau phosphorylation at pathological sites; test: Tau phosphorylation in AD cellular models; assay type: cell-based
P-glycoprotein = P-glycoprotein (Homo sapiens (Human), UniProt P08183); settings: known Hsp90 inhibitor, cited from earlier work
p35 = test: p35, Tau phosphorylation and Hsp70 in primary rat cortical neurons and COS-7/p35, COS-7/p35/Tau cells; assay type: cell-based; settings: compared with PU24FC1
Description: Embryonic primary rat cortical neurons and COS-7 cells transfected with cDNAs corresponding to either p35 alone (COS-7/p35) or both p35 and Tau (COS-7/p35/Tau) are relevant experimental systems to study aberrant neuronal kinase activity because phosphorylation of Tau at putative cdk5 sites is both enhanced in these cells and in embryonic and juvenile brains (50, 52) and is similar to that in AD-afflicted brains (50). […]
To further examine the roles played by Hsp90 in tauopathy, we made use of both PU24FC1 and 17-(allyllamino)-17-demethoxygeldanamycin (17AAG) and investigated their effects on both cdk5/p35 and TauP301L in primary neuronal and COS-7 cell cultures. […] After incubation, cells were harvested and lysed in 2% SDS, and the resulting samples were analyzed by Western blotting.
We detected a dose- and time-dependent degradation of p35 by PU24FC1 in primary neurons, as well as in COS-7/p35 and COS-7/p35/Tau cells. […] Reduction of p35 levels by Hsp90 inhibition affected the activity of the cdk5/p35 complex, as measured using a substrate of cdk5, the histone-H1.

P-glycoprotein, sequence (P08183 whole entry): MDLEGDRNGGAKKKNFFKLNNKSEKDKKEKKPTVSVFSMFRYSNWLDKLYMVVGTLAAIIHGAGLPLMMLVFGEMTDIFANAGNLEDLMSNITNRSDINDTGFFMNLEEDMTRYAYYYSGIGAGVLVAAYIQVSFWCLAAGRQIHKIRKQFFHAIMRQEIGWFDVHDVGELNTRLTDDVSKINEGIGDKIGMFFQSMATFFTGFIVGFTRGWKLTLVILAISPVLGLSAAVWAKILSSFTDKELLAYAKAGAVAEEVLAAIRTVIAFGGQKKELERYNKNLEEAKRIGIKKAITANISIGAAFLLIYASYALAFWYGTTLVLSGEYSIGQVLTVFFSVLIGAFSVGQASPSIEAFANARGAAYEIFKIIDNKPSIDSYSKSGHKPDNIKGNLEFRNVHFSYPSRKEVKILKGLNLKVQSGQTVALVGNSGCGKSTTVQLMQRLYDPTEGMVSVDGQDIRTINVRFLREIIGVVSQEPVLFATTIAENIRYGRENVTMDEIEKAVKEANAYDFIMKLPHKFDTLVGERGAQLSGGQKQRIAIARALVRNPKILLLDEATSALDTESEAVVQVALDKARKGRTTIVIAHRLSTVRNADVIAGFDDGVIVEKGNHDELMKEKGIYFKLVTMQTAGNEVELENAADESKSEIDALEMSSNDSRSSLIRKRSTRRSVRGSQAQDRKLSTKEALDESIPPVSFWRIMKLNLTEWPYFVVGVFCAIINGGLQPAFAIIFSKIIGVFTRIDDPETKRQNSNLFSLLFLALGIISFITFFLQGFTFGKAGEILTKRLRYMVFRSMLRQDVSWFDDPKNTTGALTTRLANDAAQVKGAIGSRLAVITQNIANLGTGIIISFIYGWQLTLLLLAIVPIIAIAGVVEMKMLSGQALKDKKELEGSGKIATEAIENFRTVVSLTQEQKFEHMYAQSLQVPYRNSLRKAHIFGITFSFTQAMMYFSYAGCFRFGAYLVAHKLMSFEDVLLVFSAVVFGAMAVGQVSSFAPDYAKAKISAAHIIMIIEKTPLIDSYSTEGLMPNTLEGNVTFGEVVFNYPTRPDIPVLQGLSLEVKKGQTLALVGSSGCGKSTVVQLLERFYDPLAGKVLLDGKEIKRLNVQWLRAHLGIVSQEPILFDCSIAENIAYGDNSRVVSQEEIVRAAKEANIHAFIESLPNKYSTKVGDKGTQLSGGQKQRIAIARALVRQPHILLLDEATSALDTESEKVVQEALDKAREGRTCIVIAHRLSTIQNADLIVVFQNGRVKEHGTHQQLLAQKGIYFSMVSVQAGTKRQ

| SMILES | solubility [1] | crossing of the blood-brain barrier [2] | tau phosphorylation levels at pathological sites [3] | P-gp substrate (P-glycoprotein) | P-gp substrate (P-glycoprotein; listed as 17-AAG) | effects on p35 and mTau (p35) | crossing of the blood-brain barrier ([2]; listed as 17-AAG) |
| --- | --- | --- | --- | --- | --- | --- | --- |
| COC1=C2C[C@@H](C)C[C@H](OC)[C@H](O)[C@@H](C)/C=C(\C)[C@H](OC(N)=O)[C@@H](OC)/C=C\C=C(/C)C(=O)NC(=CC1=O)C2=O [geldanamycin] | poorly soluble | do not cross the blood-brain barrier | reduced |  |  |  |  |
| C[C@@H]1C[C@H]2O[C@@H]2/C=C\C=C\C(=O)Cc2c(Cl)c(O)cc(O)c2C(=O)O1 [radicicol] | poorly soluble | do not cross the blood-brain barrier |  |  |  |  |  |
| C=CCNC1=C2C[C@@H](C)C[C@H](OC)[C@H](O)[C@@H](C)/C=C(\C)[C@H](OC(N)=O)[C@@H](OC)/C=C\C=C(/C)C(=O)NC(=CC1=O)C2=O [Compound 17AAG, 17-(allyllamino)-17-demethoxygeldanamycin] | poorly soluble | do not cross the blood-brain barrier |  | P-gp substrate | P-glycoprotein substrate | Analogous effects | does not effectively cross the blood brain barrier |
